# Measurements taken from publication PMC8621208, “Antiseptic 9-Meric Peptide with Potency against Carbapenem-Resistant Acinetobacter baumannii Infection” (International Journal of Molecular Sciences, 2021).
# Like-named read-outs stand apart in the source and are kept apart here. Where a SMILES comes first, the peptide text is derived from it. Where no end group is shown, it is not given here. [ ]: non-standard residue; d: D form.
# Assays:
# [1] = tested on: sheep red blood cells (sRBC); assay: Hemolytic assay; format: cell-based; details: 100 μM
# Protocol: The peptide-induced toxicity was determined by hemolytic against Sheep red blood cells (sRBC). Briefly, Fresh sRBC were washed at least three times with phosphate-buffered saline (PBS) and the debris were removed by centrifugation (1000× g for 5 min, 4 °C). All the peptides including melittin control (0.2–100 μM) and positive control (1% (v/v) triton X-100) were incubated with 4% (v/v) sRBC for 1 h at 37 °C followed by centrifugation at 1000× g for 5 min. The supernatant was measured at 405 nm using a microplate reader.
# CRAB C1 = assay: microbe, parasite or virus in culture; details: CRAB C1
# Description: (§1) Escherichia coli KCTC 1682 was obtained from the Korean Collection for Type Cultures (KCTC) (Jeongeup-si, Korea), Acinetobacter baumannii KCCM 40203, Pseudomonas aeruginosa KCCM 11328 from the Korea Culture Center of Microorganisms (KCCM) (Seoul, Korea). Klebsiella pneumoniae NCCP 16054 were obtained from the National Culture Collection for Pathogens (NCCP) (Osong, Korea). Additionally, two carbapenem-resistant E. coli (CREC E1 and E2), 11 carbapenem-resistant A. baumannii (CRAB C0–C10) and two carbapenem-resistant K. pneumoniae (CRKP K1 and K2) were isolated from the patients, who presented symptoms and signs of infection at Korea University Anam Hospital (Seoul, Korea) (IRB registration no. 2020AN0157, 4 March 2021). CRAB C0–C10 have the OXA-23 gene with carbapenem-resistance.
# (§2) The minimum inhibitory concentrations (MIC) were determined using broth dilution method. Briefly, all the mentioned bacterial strains were grown overnight at 37 °C by Muller–Hinton (MH) media. […] After 16 h incubation, the bacterial growth was read at 600 nm using a SpectraMAX microplate reader (Molecular Devices, San Jose, CA, USA).
# CRAB C8 = assay: microbe, parasite or virus in culture; details: CRAB C8
# Description: as §1, §2
# K. pneumoniae = assay: microbe, parasite or virus in culture; details: 16 h
# Description: as §1, §2
# E. coli [2] = format: cell-based, Escherichia coli; details: peptide pre-incubated 6 h at 37 °C
# Protocol: (§3) All the peptides at their MICs were pre-incubated with proteolytic enzymes such as trypsin and α-chymotrypsin (10,000:1; peptide: enzyme ratio) for 6 h at 37 °C. Then, 100 μL of peptide-protease cocktail was added to the 100 µL bacterial suspension (E. coli, A. baumannii and CRAB C0, 2 × 10^5 CFU/mL) and further incubated for 16 h at 37 °C. Bacterial suspension without peptide and protease served as negative control. The analysis was repeated at three times using independent experiments, and the degree of bacterial growth was measured at 600 nm using a microplate reader.
# A. baumannii [3] = format: cell-based, Acinetobacter baumannii; details: peptide pre-incubated 6 h at 37 °C
# Protocol: as §3
# E. coli [4] = assay: MIC, broth dilution; format: cell-based, Escherichia coli KCTC 1682; details: E. coli; 16 h, MH media; read-out: Minimal Inhibitory Concentration (MIC)
# Description: as §1, §2
# P. aeruginosa = assay: MIC, broth dilution; format: cell-based, Pseudomonas aeruginosa KCCM 11328; details: 16 h, MH media, read-out: Minimal Inhibitory Concentration (MIC)
# Description: as §1, §2
# CREC E1 = assay: MIC, broth dilution; format: cell-based, carbapenem-resistant E. coli; details: read-out: Minimal Inhibitory Concentration (MIC)
# Description: as §1, §2
# CREC E2 = assay: MIC, broth dilution; format: cell-based, carbapenem-resistant E. coli; details: read-out: Minimal Inhibitory Concentration (MIC)
# Description: as §1, §2
# CRAB C0 [5] = format: cell-based, carbapenem-resistant A. baumannii; details: peptide pre-incubated 6 h at 37 °C
# Protocol: as §3
# [6] = tested on: human kidney (HK)-2 cells; assay: Cytotoxicity, WST-8 assay; format: cell-based; details: 24 h; for Toxicity in HK-2 cells: up to 100 μM
# Protocol: (§4) Figure 6 In vitro cytotoxicity of Pro9-3 and their analogues. (A) Dose-response curve represent the hemolytic activity of peptides against sheep red blood cell (sRBC). Concentration-dependent (0–100 μM) toxic effects induced by peptides on (B) RAW 264.7 murine macrophage cells and (C) human kidney (HK)-2 cells for 24 h. Melittin was used as a control. Statistical analysis was performed using two-way analysis of variance (ANOVA) with Dunnett’s comparison test. Values are expressed as mean ± SEM of three independent experiments. * p < 0.05, ** p < 0.01, *** p < 0.001, and ns, non-significant compared with the control.
# (§5) RAW 264.7 mouse macrophage cells and Human kidney (HK)-2 cells were obtained from Korean cell line bank (Seoul, Korea) and the cells were maintained in DMEM culture media (Thermo Fischer Scientific Inc., Waltham, MA, USA) supplemented with 10% fetal bovine serum, 1% penicillin/streptomycin at 37 °C in a humidified 5% CO2 incubator. The cytotoxicity of the peptides was analyzed using WST-8 cell proliferation assay (Biomax Co, Ltd., Seoul, Korea), and the experiment was performed according to the kit protocol. Briefly, cells (1 × 10^4) were seeded in 96-well plate and the peptides treatment (0–100 μM) were initiated at 80% confluency and then for 24 h. After incubation, WST-8 reagent was added and the change in absorbance was read at 450 nm against reagent blank, and values are expressed as percent cell survival.
# [7] = tested on: RAW 264.7 murine macrophage cells; assay: Cytotoxicity, WST-8 assay; format: cell-based, mouse; details: 24 h
# Protocol: as §4, §5
# A. baumannii [8] = assay: MIC, broth dilution; format: cell-based, Acinetobacter baumannii KCCM 40203; details: 16 h, MH media, read-out: Minimal Inhibitory Concentration (MIC)
# Description: as §1, §2
# CRAB C0 [9] = assay: MIC, broth dilution; format: cell-based, carbapenem-resistant A. baumannii; details: read-out: Minimal Inhibitory Concentration (MIC)
# Description: as §1, §2
# CRAB C3 = assay: MIC, broth dilution; format: cell-based, carbapenem-resistant A. baumannii; details: read-out: Minimal Inhibitory Concentration (MIC)
# Description: as §1, §2
# CRAB C10 = assay: MIC, broth dilution; format: cell-based, carbapenem-resistant A. baumannii; details: read-out: Minimal Inhibitory Concentration (MIC)
# Description: as §1, §2
# CRAB C7 = assay: MIC, broth dilution; format: cell-based, carbapenem-resistant A. baumannii; details: read-out: Minimal Inhibitory Concentration (MIC)
# Description: as §1, §2
# CRAB C6 = assay: MIC, broth dilution; format: cell-based, carbapenem-resistant A. baumannii; details: read-out: Minimal Inhibitory Concentration (MIC)
# Description: as §1, §2
# CRAB C5 = assay: MIC, broth dilution; format: cell-based, carbapenem-resistant A. baumannii; details: read-out: Minimal Inhibitory Concentration (MIC)
# Description: as §1, §2
# CRAB C2 = assay: MIC, broth dilution; format: cell-based, carbapenem-resistant A. baumannii; details: read-out: Minimal Inhibitory Concentration (MIC)
# Description: as §1, §2
# CRAB C9 = assay: MIC, broth dilution; format: cell-based, carbapenem-resistant A. baumannii; details: read-out: Minimal Inhibitory Concentration (MIC)
# Description: as §1, §2
# CRAB C4 = assay: MIC, broth dilution; format: cell-based, carbapenem-resistant A. baumannii; details: read-out: Minimal Inhibitory Concentration (MIC)
# Description: as §1, §2
# CRKP K2 = assay: MIC, broth dilution; format: cell-based, carbapenem-resistant K. pneumoniae; details: read-out: Minimal Inhibitory Concentration (MIC)
# Description: as §1, §2
# CRKP K1 = assay: MIC, broth dilution; format: cell-based, carbapenem-resistant K. pneumoniae; details: read-out: Minimal Inhibitory Concentration (MIC)
# Description: as §1, §2
# CRAB C0 outer membrane = assay: Outer membrane permeability, NPN uptake; format: cell-based, carbapenem-resistant A. baumannii
# Protocol: The effect of peptides on the disturbance of CRAB C0 outer membrane was analyzed using 1-N-phenylnaphthylamine (NPN, Sigma-Aldrich, St. Louis, MO, USA) uptake assay, as previously described. Briefly, CRAB C0 cell suspensions were mixed with NPN (1 mM) and the background fluorescence was recorded for subtraction (excitation λ = 350 nm, emission λ = 420 nm) using RF-6000PC fluorescent spectrophotometer (Shimadzu Scientific Instruments, Kyoto, Japan). Changes in the NPN fluorescence were recorded after addition of different concentrations of peptides and values are expressed as—fluorescence intensity (A.U.).
Compound,Hemolytic activity [1] [%],Minimal Inhibitory Concentration (MIC) (CRAB C1) [µM],Minimal Inhibitory Concentration (MIC) (CRAB C8) [µM],MIC (E. coli [4]) [µM],MIC (P. aeruginosa) [µM],MIC (CREC E1) [µM],MIC (CREC E2) [µM],Minimal Inhibitory Concentration (MIC) (CRAB C0 [5]; CRAB C0 + Trypsin) [µM],Minimal Inhibitory Concentration (MIC) (CRAB C0 [5]; CRAB C0 + α-Chymotrypsin) [µM],MIC (A. baumannii [8]) [µM],MIC (CRAB C0 [9]) [µM],MIC (CRAB C3) [µM],MIC (CRAB C10) [µM],MIC (CRAB C7) [µM],MIC (CRAB C6) [µM],MIC (CRAB C5) [µM],MIC (CRAB C2) [µM],MIC (CRAB C9) [µM],MIC (CRAB C4) [µM],MIC (CRKP K2) [µM],further results
RRWIALWLR-NH2 [R-Pro9-3],3.4,32,32,16,64,16,16,64,64,16,8,32,16,32,32,32,32,16,32,32,"Minimal Inhibitory Concentration (MIC) (K. pneumoniae; K. pneumoniae, MH media): 32 µM; Minimal Inhibitory Concentration (MIC) (E. coli [2]; E. coli + Trypsin): >64 µM; Minimal Inhibitory Concentration (MIC) (E. coli [2]; E. coli + α-Chymotrypsin): 64 µM; Minimal Inhibitory Concentration (MIC) (A. baumannii [3]; A. baumannii + Trypsin): >64 µM; Minimal Inhibitory Concentration (MIC) (A. baumannii [3]; A. baumannii + α-Chymotrypsin): >64 µM; Toxicity in HK-2 cells [6]: neither R-Pro9-3 nor Pro9-3 (parent) showed toxicity; Toxicity in RAW 264.7 cells ([7]; up to 100 μM): neither R-Pro9-3 nor Pro9-3 (parent) showed toxicity; MIC (CRKP K1): 32 µM"
RLWLAIWRR-NH2 [Pro9-3],2.5,16,16,16,64,16,16,>64,>64,16,8,16,16,16,16,16,16,16,16,64,Minimal Inhibitory Concentration (MIC) (K. pneumoniae): 64 µM; Toxicity in HK-2 cells [6]: neither R-Pro9-3 nor Pro9-3 (parent) showed toxicity; Toxicity in RAW 264.7 cells ([7]; up to 100 μM): neither R-Pro9-3 nor Pro9-3 (parent) showed toxicity; MIC (CRKP K1): 64 µM
"CC[C@@H](C)[C@@H](NC(=O)[C@@H](C)NC(=O)[C@@H](CC(C)C)NC(=O)[C@@H](Cc1c[nH]c2ccccc12)NC(=O)[C@@H](CC(C)C)NC(=O)[C@H](N)CCCNC(=N)N)C(=O)N[C@H](Cc1c[nH]c2ccccc12)C(=O)N[C@H](CCCNC(=N)N)C(=O)N[C@H](CCCNC(=N)N)C(N)=O [Pro9-3D, rlwlaiwrr-NH2] (H-[dR][dL][dW][dL][dA][dI][dW][dR][dR]-NH2)",1.9,8,8,8,8,8,8,4,4,4,4,8,8,8,8,8,8,8,8,8,Minimal Inhibitory Concentration (MIC) (K. pneumoniae): 8 µM; Toxicity in human kidney (HK)-2 cells ([6]; 100 μM): 22.9%; Toxicity in RAW 264.7 cells ([7]; 100 μM): 44.5%; NPN uptake (outer membrane permeabilization) (CRAB C0 outer membrane): greater NPN uptake than their L-form peptides; MIC (CRKP K1): 16 µM
